Paper PMC4068353, “Characterization of 14-3-3-ζ Interactions with Integrin Tails” (Journal of Molecular Biology, 2013)
Entries after “also recorded” stand apart in the source; their conditions may differ.

Legend:
[1] = tested on: paxillin (residues 1–323); assay: NMR test of α4 integrin tail interaction with paxillin N-terminal region; format: binding; conditions: paxillin residues 1–323 with all LD motifs
Method: (§1) The interactions of α4 and 14-3-3-ζ with paxillin were also investigated. The association of paxillin with α4 has been detected using pull-down experiments with glutathione S-transferase fusion proteins[22,32,33] and, very recently, by NMR in a study that also reports the solution structure of the α4 integrin tail.[34] […] The possibility that a paxillin/14-3-3-ζ association depends on phosphorylation was also assessed. The ELM (eukaryotic linear motif) server[35] indicated three putative 14-3-3 binding motifs in the paxillin N-terminus; of these, only one has been reported to be phosphorylated in vivo[36] (Supplementary Fig. 1a). […] The recent report of paxillin binding to α4 detected by NMR used shorter paxillin fragments than us, covering the LD2–LD4 region.[34] It is possible that, in the whole N-terminal paxillin, the α4 interaction sites are masked, which would explain the absence of an interaction in our studies.
Samples were prepared in NMR buffer (pH 6.5) with 5% D2O, and experiments were performed at 25 °C. Titration experiments were collected on a 500-MHz spectrometer using a water flip-back-embedded gradient enhanced ^15N–^1H HSQC pulse sequence.[46] […] Data were processed using NMRPipe[47] and analyzed with the programs CARA/XEASY[48] or CCPN Analysis.[49]

14-3-3-ζ [2] = target: T1, 14-3-3-ζ (Homo sapiens, UniProt P63104); assay: ITC of integrin tail fragments with 14-3-3-ζ; format: binding; conditions: 298 K, pH 6.5, fragment in cell, 14-3-3-ζ in syringe
T1 construct: His10 (cleaved yes); made in house
T1 sequence (P63104 1-245): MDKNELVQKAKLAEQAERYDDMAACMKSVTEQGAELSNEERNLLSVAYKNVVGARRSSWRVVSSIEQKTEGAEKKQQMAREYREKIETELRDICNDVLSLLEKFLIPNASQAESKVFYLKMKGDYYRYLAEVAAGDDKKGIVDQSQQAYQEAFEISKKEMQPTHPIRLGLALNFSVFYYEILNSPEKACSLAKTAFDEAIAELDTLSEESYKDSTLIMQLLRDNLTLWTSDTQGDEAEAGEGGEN
Method: Phosphorylated α4 synthetic peptides were purchased from GL Biochem Ltd. (Shanghai). All recombinant proteins and synthetic peptides were prepared in 20 mM sodium phosphate and 50 mM NaCl (pH 6.5), and concentrations were determined by UV absorbance at 280 nm. ITC experiments using a VP-ITC200 instrument (MicroCal) were performed at 298 K as follows: the cell (volume, ~ 200 μl) contained the different integrin tail fragments, and the syringe (volume, ~ 40 μl) contained 14-3-3-ζ. A first injection of 2 μl was followed by 15 injections of 2.5 μl, with a stirring speed of 1500 rpm and a delay between injections of 180 s. A blank titration was performed by injecting 14-3-3-ζ into buffer to take the heat of dilution into account. Experiments were repeated twice for each sample. Raw data were processed and fitted with MicroCal Origin software using a one-site model where the error function is calculated as the sum of the squared deviations between the data and the model curve.

14-3-3-ζ [3] = target: T1, 14-3-3-ζ; assay: 15N-1H HSQC NMR titration of 15N-labeled integrin tails with unlabeled 14-3-3-ζ; format: binding; conditions: 15N-labeled tail 0.1 mM, equimolar unlabeled 14-3-3-ζ; NMR buffer pH 6.5, 25 °C
Method: (§2) Samples were prepared in NMR buffer (pH 6.5) with 5% D2O, and experiments were performed at 25 °C. Titration experiments were collected on a 500-MHz spectrometer using a water flip-back-embedded gradient enhanced ^15N–^1H HSQC pulse sequence.[46] For the assignment of the α4 and β2 backbone resonances, ^15N–^13C integrin tails of 0.6 mM concentration were used to measure CBCA(CO)NH and CBCANH experiments on a Bruker 500-MHz instrument equipped with a cryogenic probe head. Data were processed using NMRPipe[47] and analyzed with the programs CARA/XEASY[48] or CCPN Analysis.[49]

[4] = tested on: paxillin (residues 1–323); assay: ITC test of pairwise interaction with paxillin N-terminal region; format: binding
Method: as §1
Phosphorylated α4 synthetic peptides were purchased from GL Biochem Ltd. (Shanghai). All recombinant proteins and synthetic peptides were prepared in 20 mM sodium phosphate and 50 mM NaCl (pH 6.5), and concentrations were determined by UV absorbance at 280 nm. […] Raw data were processed and fitted with MicroCal Origin software using a one-site model where the error function is calculated as the sum of the squared deviations between the data and the model curve.

14-3-3-ζ [5] = target: T1, 14-3-3-ζ; assay: Fluorescence polarization titration of fluorescein-labeled integrin tails with 14-3-3-ζ; format: binding; conditions: 1 μM, ex 485 nm, em 520 nm; for binding to 14-3-3-ζ by fluorescence polarization, in words: fluorescein-labeled tail
Method: Fig. 6 Fluorescence polarization and ITC of interactions between integrin tails and 14-3-3-ζ. (a) Fluorescence polarization titrations of fluorescein-labeled β1A, β3 and α4 with 14-3-3-ζ. […] (b–d) ITC sensorgram of an in-cell 200 μM β1A, β2 (same as in Fig. 5a) or β3 samples injected with 2 mM 14-3-3-ζ.
For fluorescence polarization experiments, integrin tails were labeled with fluorescein-5-maleimide (Invitrogen) linked to an engineered C-terminal Cys residue. Measurements were performed using 96-well microplates (Corning) in a PHERAstar FS microplate reader (BMG Labtech). Fluorescein-labeled integrin tails at 1 μM concentration were excited at 485 nm, and polarization was recorded at 520 nm.

14-3-3-ζ S58A = assay: NMR binding of 14-3-3-ζ variant S58A to labeled integrin tail; conditions: labeled β1A
Description: (§3) To gain further insight into the β1A/14-3-3-ζ association, we investigated the effects of 14-3-3-ζ substitutions on binding to β1A integrin tail. It has been reported that the substitution S58A in 14-3-3-β abolishes the β1A interaction.[38] S58 regulates the dimeric state of 14-3-3,[39] but it is not involved directly in binding to phospho-peptides. The binding of 14-3-3-ζ variants S58A and S58E to labeled β1A was studied using NMR. […] A similar result was obtained with the β2 integrin tail (data not shown).
as §2

14-3-3-ζ S58E = assay: NMR binding of 14-3-3-ζ variant S58E to labeled integrin tail; conditions: labeled β1A
Description: as §3, §2

Substance	interaction with paxillin by NMR, in words [1]	binding to 14-3-3-ζ by ITC, in words (14-3-3-ζ [2])	change of integrin tail resonances on addition of 14-3-3-ζ, in words (14-3-3-ζ [3])	interaction with paxillin by ITC, in words [4]	binding to 14-3-3-ζ by fluorescence polarization, in words (14-3-3-ζ [5])	change of integrin tail resonance intensity with 14-3-3-ζ S58A compared to wt, in words (14-3-3-ζ S58A)	change of integrin tail resonance intensity with 14-3-3-ζ S58E, in words (14-3-3-ζ S58E)	Kd (14-3-3-ζ [5]; fluorescence polarization, tail labeled with fluorescein-5-maleimide at engineered C-terminal Cys, single-site model)
GPLGSKAGFFKRQYKSILQEENRRDSWSYINSKSNDD [α4 wt, recombinant α4 integrin cytoplasmic tail, residues 1001–1032]	no specific interaction	a Kd could not be determined by ITC; also recorded: the interaction is weak, in the millimolar range	significant decrease in α4 amide resonance intensities	no pairwise interaction was detected by ITC	No binding was detected			
GS KLLMIIHDRREFAKFEKEKMNAKWDTGENPIYKSAVTTVVNPKYEGK (GSKLLMIIHDRREFAKFEKEKMNAKWDTGENPIYKSAVTTVVNPKYEGK; left off: His10, N-terminal, cleaved) [β1A wt, recombinant β1A integrin tail, residues 752–798]			intensity reduction for several resonances		clearly binds	significant reduction in β1A resonance intensity change	the intensities change even less	95 ± 16 µM
